{
  "source": "paper PMC4884413",
  "about": "“In vivo therapeutic efficacy and pharmacokinetics of colistin sulfate in an experimental model of enterotoxigenic Escherichia coli infection in weaned pigs” (Veterinary Research, 2016)",
  "key": {"[1]": {"test": "Body weight of weaned pigs", "assay_type": "in vivo", "details": "both trials, challenged treated compared to challenged untreated pigs", "procedure": "Pigs were weighed individually using an electric scale prior to inoculation and at 6, 19 and 35 days after beginning CS treatment.\nBacterial counts and CS plasma concentrations were log10 transformed prior to data analysis to normalize distributions. Total E. coli counts, ETEC: F4 counts, rectal temperature, and body weight were analyzed with repeated-measures ANOVA, with time as a within-subject factor and group as the between-subject factor. A priori contrasts were performed to compare group means at different time periods and to compare pre- and post-infection means in each treatment. For these multiple comparisons, the alpha level was adjusted downward using the Benjamini-Hochberg sequential procedure. A similar procedure was used to analyze CS plasma concentration to determine effect of ETEC: F4 oral challenge on CS intestinal absorption in pigs."}, "ETEC: F4 [2]": {"system": "ETEC: F4", "test": "Diarrhea score (fecal consistency 0-4) in ETEC: F4 challenged weaned pigs", "assay_type": "in vivo", "details": "after 2 days of CS administration (d2), also d3 and d4, both trials, challenged treated vs challenged untreated, p < 0.0001", "from_the_text": "For experimental infection of pigs, a nalidixic acid-resistant (Nal^r) variant of ETEC: F4 strain ECL8559 (O149: LT: STa: STb: East1: paa: hemβ: F4), kindly provided by the E. coli Laboratory as described previously, was used. The strain was passaged in a weaned pig to enhance its pathogenicity. A hemolytic, Nal^r colony isolated from the feces of this pig was confirmed to be positive for O149 and the virulence genes F4, STa, STb, LT by multiplex PCR as previously described. This strain, designated ECL8559A, was used in the experimental challenge in this study. After 1-week of acclimatization, 28-day-old pigs in the challenge groups were orally gavaged with 10^9 CFU of the ETEC: F4 strain in 5 mL of trypticase soy broth (Difco Laboratories, Inc., Detroit, MI, USA) following the administration of 10 mL of CaCO3 to neutralize gastric acid. […]\nAfter the oral challenge, pigs were observed daily for signs of anorexia, lethargy and diarrhea. The severity of diarrhea was assessed visually by using a fecal consistency scoring (0, normal; 1, soft feces; 2, mild diarrhea; 3, semi liquid diarrhea and 4, liquid diarrhea) as described by Jamalludeen et al.. The rectal body temperature was monitored daily using a digital thermometer.\nOrdinal diarrhea scores were analyzed with the Cochran-Mantel-Haenszel test at each time period."}, "[3]": {"details": "intramuscular (IM), pigs, cited from earlier work", "from_the_text": "In our study, regardless of the dose, CS treatment led to a decrease of nearly 4 log cfu/g in fecal shedding of ETEC: F4 and total E. coli, but only during the treatment period. […] In our study, the effect of CS on the decrease of ETEC: F4 and total E. ..."}, "[4]": {"test": "CS plasma concentrations by HPLC-MS/MS after oral administration", "assay_type": "in vivo, pigs", "details": "both trials", "procedure": "(§1) Colistin sulfate (Bond & Beaulac Inc., QC, Canada) was administered by oral gavage in 5 mL of water using a polyethylene tube attached to a syringe, at a dose of 100 000 or 50 000 IU/kg in trials 1 and 2 respectively.\nBlood samples (3 mL) were collected using potassium EDTA tubes, from the jugular vein of eight pigs in each treated group, challenged or not of the two trials, at 0.5, 12, 24 and 48 h after the last CS oral administration on day 5.\nPlasma was separated by centrifugation at 3000 g for 10 min and stored at −20 °C prior to analysis. These samples were used to determine CS plasma concentrations by high performance HPLC–MS/MS, in order to determine the slope of the terminal phase (λz). The λz was calculated as the negative of the slope of the log-linear regression of the natural logarithm concentration–time curve during the terminal phase. The λz is an important parameter used to determine CS elimination half-life (T1/2), which is an index of drug persistence in the body. Bioanalyses and pharmacokinetic analyses were performed as previously described. The quantification of CS was based on the peak area ratio of the analyte with the internal standard. A calibration curve was used for determining the concentration of CS in all unknown samples by comparing the peak area ratio of the unknown samples to a set of standard samples of known concentration. […]"}, "E. coli K99": {"system": "E. coli K99", "details": "CS 300 mg/kg of diet, 7 or 14 days, weanling pigs challenged with E. coli K99; cited from earlier work"}, "ETEC: F4 [5]": {"system": "ETEC: F4", "test": "Fecal ETEC: F4 shedding in challenged weaned pigs", "assay_type": "in vivo", "procedure": "(§2) Pigs were selected based on the presence of the F4 receptor gene by PCR–RFLP as previously described at 4 days of age. Two trials of 48 pigs were conducted using different doses of CS [100 000 IU/kg (trial 1) or 50 000 IU/kg (trial 2)]. In each trial, four groups of 12 pigs were constituted: challenged treated, challenged untreated, unchallenged treated, and unchallenged untreated.\n(§3) For experimental infection of pigs, a nalidixic acid-resistant (Nal^r) variant of ETEC: F4 strain ECL8559 (O149: LT: STa: STb: East1: paa: hemβ: F4), kindly provided by the E. coli Laboratory as described previously, was used. The strain was passaged in a weaned pig to enhance its pathogenicity. A hemolytic, Nal^r colony isolated from the feces of this pig was confirmed to be positive for O149 and the virulence genes F4, STa, STb, LT by multiplex PCR as previously described. This strain, designated ECL8559A, was used in the experimental challenge in this study. After 1-week of acclimatization, 28-day-old pigs in the challenge groups were orally gavaged with 10^9 CFU of the ETEC: F4 strain in 5 mL of trypticase soy broth (Difco Laboratories, Inc., Detroit, MI, USA) following the administration of 10 mL of CaCO3 to neutralize gastric acid.\nas §1\nFresh fecal samples were obtained from pigs using pre-weighed sterile rectal swabs (Puritan Medical Products, Guilford, Maine, USA). Bacteriological examination of fecal samples was performed 1 day before and 1, 2, 3, 5, 6, 7, 8, 10, 13, 20, 27, 36 days after oral challenge to evaluate fecal excretion of the challenge ETEC: F4 strain and total E. coli count. […] Rectal swabs were weighed before and after sampling of pigs for individual fecal material quantification."}, "total E. coli": {"system": "total E. coli", "test": "Fecal total E. coli shedding in weaned pigs", "assay_type": "in vivo", "procedure": "as §2, §3, §1\nFresh fecal samples were obtained from pigs using pre-weighed sterile rectal swabs (Puritan Medical Products, Guilford, Maine, USA). Bacteriological examination of fecal samples was performed 1 day before and 1, 2, 3, 5, 6, 7, 8, 10, 13, 20, 27, 36 days after oral challenge to evaluate fecal excretion of the challenge ETEC: F4 strain and total E. coli count. One millilitre of buffered peptone water solution (BPW) was added to each swab and selected dilutions were plated on MacConkey agar and 5% bovine blood agar plates containing nalidixic acid at 50 μg/mL (Sigma-Aldrich Canada Ltd., Oakville, ON, Canada) to count the total E. coli population and the hemolytic challenge ETEC: F4 strain respectively, as previously described. In parallel, 5% bovine blood agar plates containing nalidixic acid at 50 μg/mL and CS at 2 μg/mL and MacConkey agar plates containing CS at 2 μg/mL were used to enumerate the CS resistant hemolytic challenge ETEC: F4 and total E. coli population respectively. The plates were incubated aerobically for 24 h at 37 °C. Isolates recovered from media containing 2 μg/mL of colistin were considered to be putative CS-resistant, as previously described. All samples were processed on the day of collection. Rectal swabs were weighed before and after sampling of pigs for individual fecal material quantification."}},
  "note": "Counter-ions that a name gives are not always drawn. Like-named read-outs stand apart in the source and are kept apart here. Bridge positions count the residues as written; N and C are the ends. Square brackets hold non-standard residues; d marks the D form. Peptide text beside a SMILES is read from it. * marks the point of attachment. X1 = CC[C@H](C)CCCCC(=O)*; Dab = NCC[C@H](N)C(=O)O",
  "data": [
    {"smiles": "CC[C@H](C)CCCCC(=O)N[C@@H](CCN)C(=O)N[C@H](C(=O)N[C@@H](CCN)C(=O)N[C@H]1CCNC(=O)[C@H]([C@@H](C)O)NC(=O)[C@H](CCN)NC(=O)[C@H](CCN)NC(=O)[C@H](CC(C)C)NC(=O)[C@@H](CC(C)C)NC(=O)[C@H](CCN)NC1=O)[C@@H](C)O", "note": "[Colistin sulfate] (X1-[Dab]T[Dab][Dab][Dab][dL]L[Dab][Dab]T; lactam 4-C)", "values": [
      {"measurement": "pig weight losses", "setting": "[1]", "value": "did not prevent pig weight losses"},
      {"measurement": "diarrhea scores", "setting": "ETEC: F4 [2]", "value": "significantly decreased"},
      {"measurement": "systemic bioavailability", "setting": "[3]; 2.5 mg/kg bw", "value": 95.94, "unit": "%"},
      {"measurement": "systemic bioavailability", "setting": "[3]; 5 mg/kg bw", "value": 88.45, "unit": "%"},
      {"measurement": "plasma concentrations", "setting": "[4]; 48 h following the last CS administration, LLOQ 1 ng/mL of plasma", "value": "below the LLOQ"},
      {"measurement": "CS plasma concentrations, challenged treated compared to unchallenged treated groups", "setting": "[4]; all sampling times", "value": "higher"},
      {"measurement": "reduction of the number of E. coli in cecal digesta", "setting": "E. coli K99", "value": 4.38, "unit": "log cfu/g"},
      {"measurement": "reduction of the number of E. coli in ileal digesta", "setting": "E. coli K99", "value": 5.30, "unit": "log cfu/g"},
      {"measurement": "fecal ETEC: F4 shedding", "setting": "ETEC: F4 [5]; both trials (100 000 or 50 000 IU/kg oral, twice daily, 5 days), between d2 and d6, treated vs untreated challenged pigs, p < 0.0001", "value": "significant reduction"},
      {"measurement": "levels of ETEC: F4 in feces", "setting": "ETEC: F4 [5]; both trials, most pigs, between d4 and d6", "value": "dropped below our detection limit"},
      {"measurement": "decrease in fecal shedding of ETEC: F4", "setting": "ETEC: F4 [5]; regardless of the dose, only during the treatment period", "value": "~4", "unit": "log cfu/g"},
      {"measurement": "fecal total E. coli shedding", "setting": "total E. coli; trial 1, 100 000 IU/kg oral twice daily 5 days, d1 to d5, challenged treated vs challenged untreated, p < 0.0001", "value": "significant reduction"},
      {"measurement": "fecal total E. coli shedding", "setting": "total E. coli; trial 1, 100 000 IU/kg, d2 to d6, unchallenged treated vs unchallenged untreated, p < 0.0001", "value": "significant reduction"},
      {"measurement": "fecal total E. coli shedding", "setting": "total E. coli; trial 2, 50 000 IU/kg oral twice daily 5 days, d1 to d6, challenged treated vs challenged untreated, p < 0.0007", "value": "significant reduction"},
      {"measurement": "fecal total E. coli shedding", "setting": "total E. coli; trial 2, 50 000 IU/kg, d2 to d5, unchallenged treated vs unchallenged untreated, p < 0.0001", "value": "significant reduction"}
    ]}
  ]
}
